Experimental data: the supplement of paper PMC13207355

What was measured:
Conditions in all cases: exposure time: 72 h
[1] = system: E13 (patient-derived glioblastoma stem cells of classical subtype); experiment: surviving fraction (nuclei count normalised to DMSO); higher = more cells surviving (less toxic)
[2] = system: E21 (patient-derived glioblastoma stem cells of mesenchymal subtype); experiment: as above
[3] = system: E28 (patient-derived glioblastoma stem cells of classical subtype); experiment: as above
[4] = system: E31 (patient-derived glioblastoma stem cells of proneural subtype); experiment: as above
[5] = system: E34 (patient-derived glioblastoma stem cells of proneural subtype); experiment: as above
[6] = system: E57 (patient-derived glioblastoma stem cells of mesenchymal subtype); experiment: as above
[7] = system: FT3469 (normal neural stem cell line); experiment: as above
[8] = system: E13; experiment: phenotypic distance (Euclidean, principal components) from DMSO controls (arbitrary units); higher = stronger morphological change
[9] = system: E21; experiment: as above
[10] = system: E28; experiment: as above
[11] = system: E31; experiment: as above
[12] = system: E34; experiment: as above
[13] = system: E57; experiment: as above
[14] = system: FT3469; experiment: as above
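Throughout, for phenotypic distance (Euclidean, principal components) from DMSO controls: cell Painting imaging in 384-well plates, CellProfiler features reduced to at least 20 principal components, Euclidean distance versus same-plate DMSO vehicle wells (0.1% v/v), median over six images per well.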
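Throughout, for surviving fraction (nuclei count normalised to DMSO): nuclei counted by high-content imaging of Hoechst-stained cells in laminin-coated 384-well plates, relative to 0.1% DMSO vehicle wells, with staurosporine as cell-death control.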

CC(C)C(=O)OCC(=O)[C@@]12O[C@H](C3CCCCC3)O[C@@H]1C[C@H]1[C@@H]3CCC4=CC(=O)C=C[C@]4(C)[C@H]3[C@@H](O)C[C@@]12C [Ciclesonide]
surviving fraction ([1]; 4.1 nM): 0.929 | surviving fraction ([1]; 12.3 nM): 0.899 | surviving fraction ([1]; 37 nM): 0.833 | surviving fraction ([1]; 111.1 nM): 0.908 | surviving fraction ([1]; 333.3 nM): 0.889 | surviving fraction ([1]; 1000 nM): 0.796 | surviving fraction ([1]; 3000 nM): 0.233 | surviving fraction ([2]; 4.1 nM): 1.24 | surviving fraction ([2]; 12.3 nM): 1.23 | surviving fraction ([2]; 37 nM): 1.07 | surviving fraction ([2]; 111.1 nM): 1.17 | surviving fraction ([2]; 333.3 nM): 1.19 | surviving fraction ([2]; 1000 nM): 1.24 | surviving fraction ([2]; 3000 nM): 0.893 | surviving fraction ([3]; 4.1 nM): 1.11 | surviving fraction ([3]; 12.3 nM): 1 | surviving fraction ([3]; 37 nM): 1.26 | surviving fraction ([3]; 111.1 nM): 1.07 | surviving fraction ([3]; 333.3 nM): 0.894 | surviving fraction ([3]; 1000 nM): 1.05 | surviving fraction ([3]; 3000 nM): 0.615 | surviving fraction ([4]; 4.1 nM): 1.24 | surviving fraction ([4]; 12.3 nM): 1.11 | surviving fraction ([4]; 37 nM): 1.33 | surviving fraction ([4]; 111.1 nM): 1.47 | surviving fraction ([4]; 333.3 nM): 1.25 | surviving fraction ([4]; 1000 nM): 1.27 | surviving fraction ([4]; 3000 nM): 0.766 | surviving fraction ([5]; 4.1 nM): 1.04 | surviving fraction ([5]; 12.3 nM): 0.897 | surviving fraction ([5]; 37 nM): 1.13 | surviving fraction ([5]; 111.1 nM): 1.02 | surviving fraction ([5]; 333.3 nM): 1.08 | surviving fraction ([5]; 1000 nM): 1.06 | surviving fraction ([5]; 3000 nM): 0.589 | surviving fraction ([6]; 4.1 nM): 1.08 | surviving fraction ([6]; 12.3 nM): 1.18 | surviving fraction ([6]; 37 nM): 1.1 | surviving fraction ([6]; 111.1 nM): 1.32 | surviving fraction ([6]; 333.3 nM): 1.16 | surviving fraction ([6]; 1000 nM): 1.19 | surviving fraction ([6]; 3000 nM): 0.756 | surviving fraction ([7]; 4.1 nM): 1.1 | surviving fraction ([7]; 12.3 nM): 1.38 | surviving fraction ([7]; 37 nM): 1.15 | surviving fraction ([7]; 111.1 nM): 1.04 | surviving fraction ([7]; 333.3 nM): 1.03 | surviving fraction ([7]; 1000 nM): 1.1 | surviving fraction ([7]; 3000 nM): 0.803 | phenotypic distance ([8]; 4.1 nM): 0.991 | phenotypic distance ([8]; 12.3 nM): 0.745 | phenotypic distance ([8]; 37 nM): 1.05 | phenotypic distance ([8]; 111.1 nM): 1.04 | phenotypic distance ([8]; 333.3 nM): 0.74 | phenotypic distance ([8]; 1000 nM): 1.02 | phenotypic distance ([8]; 3000 nM): 3.25 | phenotypic distance ([9]; 4.1 nM): 1.83 | phenotypic distance ([9]; 12.3 nM): 2.04 | phenotypic distance ([9]; 37 nM): 1.74 | phenotypic distance ([9]; 111.1 nM): 2.02 | phenotypic distance ([9]; 333.3 nM): 2.07 | phenotypic distance ([9]; 1000 nM): 1.89 | phenotypic distance ([9]; 3000 nM): 2.4 | phenotypic distance ([10]; 4.1 nM): 1.16 | phenotypic distance ([10]; 12.3 nM): 0.863 | phenotypic distance ([10]; 37 nM): 1.07 | phenotypic distance ([10]; 111.1 nM): 0.708 | phenotypic distance ([10]; 333.3 nM): 1 | phenotypic distance ([10]; 1000 nM): 0.827 | phenotypic distance ([10]; 3000 nM): 2.3 | phenotypic distance ([11]; 4.1 nM): 2.4 | phenotypic distance ([11]; 12.3 nM): 2.62 | phenotypic distance ([11]; 37 nM): 3 | phenotypic distance ([11]; 111.1 nM): 3.03 | phenotypic distance ([11]; 333.3 nM): 3.06 | phenotypic distance ([11]; 1000 nM): 3.27 | phenotypic distance ([11]; 3000 nM): 2.27 | phenotypic distance ([12]; 4.1 nM): 0.88 | phenotypic distance ([12]; 12.3 nM): 0.851 | phenotypic distance ([12]; 37 nM): 1.45 | phenotypic distance ([12]; 111.1 nM): 1.77 | phenotypic distance ([12]; 333.3 nM): 1.12 | phenotypic distance ([12]; 1000 nM): 0.771 | phenotypic distance ([12]; 3000 nM): 1.4 | phenotypic distance ([13]; 4.1 nM): 1.77 | phenotypic distance ([13]; 12.3 nM): 2.02 | phenotypic distance ([13]; 37 nM): 2.36 | phenotypic distance ([13]; 111.1 nM): 2.51 | phenotypic distance ([13]; 333.3 nM): 2.31 | phenotypic distance ([13]; 1000 nM): 2.44 | phenotypic distance ([13]; 3000 nM): 2.49 | phenotypic distance ([14]; 4.1 nM): 1.45 | phenotypic distance ([14]; 12.3 nM): 1.86 | phenotypic distance ([14]; 37 nM): 1.15 | phenotypic distance ([14]; 111.1 nM): 1.37 | phenotypic distance ([14]; 333.3 nM): 1.4 | phenotypic distance ([14]; 1000 nM): 0.997 | phenotypic distance ([14]; 3000 nM): 0.762
